According to US20240239813A1, “KRAS INHIBITORS AND PHARMACEUTICAL USES THEREOF” (RISEN (SUZHOU) PHARMA TECH CO., LTD., priority 2022, published 2024):
pIC50: −log10 of the molar value.

What follows are compounds tested against His-tagged Human KRAS^G12D (Homo sapiens (Human), UniProt P01116, G12D) (assay: HTRF KRAS G12D GTP binding assay). Details: displacement of GTP-Red tracer.
Description: KRAS^G12D was used in this assay.
The ability of a test compound to bind to KRAS^G12D was measured by using an HTRF KRAS^G12D GTP Binding Kit (Cisbio, 63ADK000CB27PEG). […] 5 μL of compound solution was added to each well after serial dilution, followed by addition of 5 μL of GDP (50 nM) solution. After 30 minutes incubation at room temperature, 1×6His Eu cryptate antibody solution and GTP-Red tracer were added to the plate, then incubated for another 30 minutes. The HTRF signal was measured with a VICTOR Nivo multimode plate reader according to the manufacturer's instructions. The percent inhibition was calculated using the following formula: […]
(where the “Maximum Signal” are wells containing DMSO without inhibitor; the “Minimum Signal” are wells containing reference inhibitory component (GDP); the “Test compound signal” are wells containing test compound (inhibitor) at established concentrations).
IC50 was determined by fitting percent inhibition at each inhibitor concentration to the four-parameter nonlinear logistic equation using GraphPad Prism.

His-tagged Human KRAS^G12D, sequence (P01116-2 other isoform, or with tags, fused parts or gaps G12D): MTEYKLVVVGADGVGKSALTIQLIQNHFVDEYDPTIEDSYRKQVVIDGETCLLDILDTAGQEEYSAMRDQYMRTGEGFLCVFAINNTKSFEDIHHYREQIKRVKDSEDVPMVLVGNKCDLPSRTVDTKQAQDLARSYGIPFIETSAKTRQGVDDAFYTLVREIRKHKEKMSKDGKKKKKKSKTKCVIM

SMILES | pIC50
CCc1c(F)ccc2cc(O)cc(-c3ncc4c(N5CCN[C@H](C)C5)nc(OC[C@@]56CCCN5C[C@H](F)C6)nc4c3F)c12 [Compound 34] | < 6.00
CCc1c(F)ccc2cc(O)cc(-c3ncc4c(N5CCC6CC6(O)C5)nc(OC[C@@]56CCCN5C[C@H](F)C6)nc4c3F)c12 (some centres unmarked) [Compound 52] | < 6.00
CCc1c(F)ccc2cc(O)cc(-c3ncc4c(N5CC[C@@H](CO)C5)nc(OC[C@@]56CCCN5C[C@H](F)C6)nc4c3F)c12 [Compound 32] | < 6.00
CCc1c(F)ccc2cc(O)cc(-c3ncc4c(N5C6CCC5CC6)nc(OC[C@@]56CCCN5C[C@H](F)C6)nc4c3F)c12 [Compound 15] | < 6.00
CCc1c(F)ccc2cc(O)cc(-c3ncc4c(N5CC6(CCC6O)C5)nc(OC[C@@]56CCCN5C[C@H](F)C6)nc4c3F)c12 (some centres unmarked) [Compound 110] | < 6.00
CCc1c(F)ccc2cc(O)cc(-c3ncc4c(N5CCC6(CCO6)C5)nc(OC[C@@]56CCCN5C[C@H](F)C6)nc4c3F)c12 (some centres unmarked) [Compound 62] | < 6.00
CCc1c(F)ccc2cc(O)cc(-c3ncc4c(N5CC6CCC(C5)O6)nc(OC[C@@]56CCCN5C[C@H](F)C6)nc4c3F)c12 [Compound 13] | 6.01
CCc1c(F)ccc2cc(O)cc(-c3ncc4c(N5CCN(C(C)=O)[C@H](C)C5)nc(OC[C@@]56CCCN5C[C@H](F)C6)nc4c3F)c12 [Compound 31] | < 5.00
C#Cc1c(F)ccc2cc(O)cc(-c3ncc4c(N5CC=CCC5)nc(OCC5(CN(C)C)CC5)nc4c3F)c12 [Compound 36a] | < 6.00
CCc1c(F)ccc2cc(O)cc(-c3ncc4c(N5CCC[C@]6(CCO6)C5)nc(OCC5(CN6CCC(F)(F)CC6)CC5)nc4c3F)c12 [Compound 30a] | 7.38
CCc1c(F)ccc2cc(O)cc(-c3ncc4c(N5CCC[C@]6(CCO6)C5)nc(OCC5(CN6CCN(C)CC6)CC5)nc4c3F)c12 [Compound 12a] | 7.92
CCc1c(F)ccc2cc(O)cc(-c3ncc4c(N5CCCC(Cl)(CCO)C5)nc(OC[C@@]56CCCN5C[C@H](F)C6)nc4c3F)c12 (some centres unmarked) [Compound 26] | 5.81
CCc1c(F)ccc2cc(O)cc(-c3ncc4c(N5CC6(CCC6=O)C5)nc(OC[C@@]56CCCN5C[C@H](F)C6)nc4c3F)c12 [Compound 112] | < 6.00
CCc1c(F)ccc2cc(O)cc(-c3ncc4c(N5CCC6(CC5)COC6)nc(OC[C@@]56CCCN5C[C@H](F)C6)nc4c3F)c12 [Compound 53] | < 6.00
CCc1c(F)ccc2cc(O)cc(-c3ncc4c(N5CC6(CCO6)C5)nc(OC[C@@]56CCCN5C[C@H](F)C6)nc4c3F)c12 [Compound 6a] | < 6.00
CCc1c(F)ccc2cc(O)cc(-c3ncc4c(N5CCC[C@]6(CCO6)C5)nc(OCC5(CN(C)CC6CCOC6)CC5)nc4c3F)c12 (some centres unmarked) [Compound 50a] | 8.17
CCc1c(F)ccc2cc(O)cc(-c3ncc4c(N5CCCC6(C5)OCCO6)nc(OC[C@@]56CCCN5C[C@H](F)C6)nc4c3F)c12 [Compound 117] | 6.43
CCc1c(F)ccc2cc(O)cc(-c3ncc4c(N5CCC[C@@H](OC)C5)nc(OC[C@@]56CCCN5C[C@H](F)C6)nc4c3F)c12 [Compound 5a] | 6.19
CCc1c(F)ccc2cc(O)cc(-c3ncc4c(N5C[C@@H]6C[C@H]5CO6)nc(OC[C@@]56CCCN5C[C@H](F)C6)nc4c3F)c12 [Compound 35] | < 6.00

SMILES | pIC50
CCc1c(F)ccc2cc(O)cc(-c3ncc4c(N5CCC6(CNC(=O)O6)C5)nc(OC[C@@]56CCCN5C[C@H](F)C6)nc4c3F)c12 (some centres unmarked) [Compound 43] | < 6.00
CCc1c(F)ccc2cc(O)cc(-c3ncc4c(N5CCC6(COC6)C5)nc(OC[C@@]56CCCN5C[C@H](F)C6)nc4c3F)c12 [Compound 61] | < 6.00
CCc1c(F)ccc2cc(O)cc(-c3ncc4c(NC5CC6(CCC6)C5)nc(OC[C@@]56CCCN5C[C@H](F)C6)nc4c3F)c12 [Compound 28] | < 5.00
CCc1c(F)ccc2cc(O)cc(-c3ncc4c(N5CC(C)(O)C5)nc(OC[C@@]56CCCN5C[C@H](F)C6)nc4c3F)c12 [Compound 18] | < 5.00
CCc1c(F)ccc2cc(O)cc(-c3ncc4c(N5CCCC(c6ccccc6)C5)nc(OC[C@@]56CCCN5C[C@H](F)C6)nc4c3F)c12 (some centres unmarked) [Compound 20] | < 5.00
CCc1c(F)ccc2cc(O)cc(-c3ncc4c(N5CCCC(C#N)CC5)nc(OCC5(CN(C)C)CC5)nc4c3F)c12 (centres unmarked) [Compound 42a] | < 6.00
CCc1c(F)ccc2cc(O)cc(-c3ncc4c(N5CC6CC(CO)(C6)C5)nc(OC[C@@]56CCCN5C[C@H](F)C6)nc4c3F)c12 [Compound 7a] | < 6.00
CCc1c(F)ccc2cc(O)cc(-c3ncc4c(N5CCC6(CCCCC6)C5)nc(OC[C@@]56CCCN5C[C@H](F)C6)nc4c3F)c12 [Compound 40] | < 6.00
CCc1c(F)ccc2cc(O)cc(-c3ncc4c(N5CCCC6(COC6)C5)nc(OC[C@@]56CCCN5C[C@H](F)C6)nc4c3F)c12 [Compound 50] | 7.15
Cc1ccc2[nH]ncc2c1-c1ccc2c(N3CCC[C@]4(CCO4)C3)nc(OCC3(CN(C)C)CC3)nc2c1F [Compound 14a] | < 6.00
CCc1c(F)ccc2cc(O)cc(-c3ncc4c(N5CC6(CC(O)C6)C5)nc(OC[C@@]56CCCN5C[C@H](F)C6)nc4c3F)c12 [Compound 36] | < 6.00
CCc1c(F)ccc2cc(O)cc(-c3ncc4c(N5CCC6(CCCC6=O)CC5)nc(OC[C@@]56CCCN5C[C@H](F)C6)nc4c3F)c12 [Compound 58] | < 6.00
CN(C)CC1(COc2nc(N3CCC[C@]4(CCO4)C3)c3cnc(-c4cc(O)ccc4-c4cccs4)c(F)c3n2)CC1 [Compound 25a] | 6.19
CCc1c(F)ccc2cc(O)cc(-c3ncc4c(N5CCC6(CCC6=O)CC5)nc(OC[C@@]56CCCN5C[C@H](F)C6)nc4c3F)c12 [Compound 59] | < 6.00
CCc1c(F)ccc2cc(O)cc(-c3ncc4c(N5CC6CC(C6)C5)nc(OCC5(CN(C)C)CC5)nc4c3F)c12 [Compound 38a] | < 6.00
CCc1c(F)ccc2cc(O)cc(-c3ncc4c(N5CCC[C@@]5(C)CO)nc(OC[C@@]56CCCN5C[C@H](F)C6)nc4c3F)c12 [Compound 22] | < 5.00
CCc1c(F)ccc2cc(O)cc(-c3c(F)cc4c(N5CCCC6(CCO6)C5)nc(OC[C@@]56CCCN5C[C@H](F)C6)nc4c3F)c12 (some centres unmarked) [Compound 96] | 6.89
CCc1c(F)ccc2cc(O)cc(-c3ncc4c(N5CC6(CC(=O)C6)C5)nc(OC[C@@]56CCCN5C[C@H](F)C6)nc4c3F)c12 [Compound 44] | < 6.00
CCc1c(F)ccc2cc(O)cc(-c3ncc4c(N5CCCC6(CCOC6)C5)nc(OC[C@@]56CCCN5C[C@H](F)C6)nc4c3F)c12 (some centres unmarked) [Compound 64] | < 6.00

SMILES | pIC50
CCc1c(F)ccc2cc(O)cc(-c3ncc4c(N5CCCCCC5)nc(OCC5(CN(C)C)CC5)nc4c3F)c12 [Compound 43a] | 6.25
CCc1c(F)ccc2cc(O)cc(-c3ncc4c(N5C6CCC5COC6)nc(OC[C@@]56CCCN5C[C@H](F)C6)nc4c3F)c12 [Compound 12] | < 6.00
CCc1c(F)ccc2cc(O)cc(-c3ncc4c(N5CCC[C@]6(CCO6)C5)nc(OCC5(CN6CCC(F)C6)CC5)nc4c3F)c12 (some centres unmarked) [Compound 41a] | 7.85
CCc1c(F)ccc2cc(O)cc(-c3ncc4c(N5C6CCCC5CC6)nc(OC[C@@]56CCCN5C[C@H](F)C6)nc4c3F)c12 [Compound 17] | < 6.00
CCc1c(F)ccc2cc(O)cc(-c3ncc4c(OC[C@@]56CCCN5C[C@H](F)C6)nc(OC[C@@]56CCCN5C[C@H](F)C6)nc4c3F)c12 [Compound 47] | < 6.00
CCc1c(F)ccc2cc(O)cc(-c3ncc4c(N5CCC[C@]6(CCO6)C5)nc(OCC5(CN6CCC7(CCC7)CC6)CC5)nc4c3F)c12 [Compound 23a] | 7.51
N#Cc1c(N)sc2c(F)ccc(-c3c(Cl)cc4c(N5CCC[C@]6(CCO6)C5)nc(OCC5(CN6CCCCC6)CC5)nc4c3F)c12 [Compound 48a] | < 6.00
CCc1c(F)ccc2cc(O)cc(-c3ncc4c(N5CC6(COC6)C5)nc(OC[C@@]56CCCN5C[C@H](F)C6)nc4c3F)c12 [Compound 54] | < 6.00
CCc1c(F)ccc2cc(O)cc(-c3ncc4c(N5CCCCC(O)C5)nc(OCC5(CN(C)C)CC5)nc4c3F)c12 (centres unmarked) [Compound 46a] | 6.17
CCc1c(F)ccc2cc(O)cc(-c3ncc4c(N5CCC[C@H]5C(=O)O)nc(OC[C@@]56CCCN5C[C@H](F)C6)nc4c3F)c12 [Compound 8] | < 6.00
CCc1c(F)ccc2cc(O)cc(-c3ncc4c(N5CCC[C@]6(CCO6)C5)nc(OCC5(CN(C)CC6COC6)CC5)nc4c3F)c12 [Compound 49a] | 8.39
CCc1c(F)ccc2cc(O)cc(-c3ncc4c(N5CCC[C@]6(CCO6)C5)nc(OCC5(CC(N)=O)CC5)nc4c3F)c12 [Compound 31a] | 6.29
CCc1c(F)ccc2cc(O)cc(-c3ncc4c(N5CCCC5c5ccccc5)nc(OC[C@@]56CCCN5C[C@H](F)C6)nc4c3F)c12 (some centres unmarked) [Compound 19] | < 5.00
CCc1c(F)ccc2cc(O)cc(-c3ncc4c(N5CCC[C@H]5C(C)(C)O)nc(OC[C@@]56CCCN5C[C@H](F)C6)nc4c3F)c12 [Compound 45] | < 6.00
CCc1c(F)ccc2cc(O)cc(-c3ncc4c(N5CCCC5c5cccnc5)nc(OC[C@@]56CCCN5C[C@H](F)C6)nc4c3F)c12 (some centres unmarked) [Compound 24] | < 5.00
Nc1cc(Cl)c(C(F)(F)F)c(-c2ncc3c(N4CCCC5(COC5)C4)nc(OC[C@@]45CCCN4C[C@H](F)C5)nc3c2F)c1 [Compound 63] | < 6.00
CCc1c(F)ccc2cc(O)cc(-c3ncc4c(N5CCC(C(C)=O)CC5)nc(OC[C@@]56CCCN5C[C@H](F)C6)nc4c3F)c12 [Compound 49] | < 6.00
CCc1c(F)ccc2cc(O)cc(-c3ccc4c(N5CCCC6(CCO6)C5)nc(OC[C@@]56CCCN5C[C@H](F)C6)nc4c3F)c12 (some centres unmarked) [Compound 70] | 7.17
